US12091398B2, “PD-L1 antagonist compound” (ADLAI NORTYE BIOPHARMA CO., LTD., priority 2019, dated 2024)

These compounds were tested on PD-1/PD-L1 interaction (assay: Cell based PD-1/PD-L1 NFAT reporter assay). Settings: Homo sapiens, 6 h, PD-1/NFAT-Reporter-Jurkat cells co-cultured with TCR activator/PD-L1-CHO cells; 6 hour incubation; luciferase; calibrated to Atezolizumab 10 nM; read-out: Absolute EC50.
Design: species or system human
Experimental: Cell Based PD-1/PD-L1 NFAT Reporter Assay
Compounds of the present patent were tested in a cell based PD-1/PD-L1 NFAT reporter assay.
The cell-based luciferase reporter assay is used for monitoring the PD-1/PD-L1 inhibitor by characterizing the biological activity of PD-1: PD-L1 interactions in cellular context. PD-1/NFAT-Reporter-Jurkat cells stably over-expressing human PD-1 with NFAT reporter are used as effector cells. TCR activator/PD-L1—CHO cells over-expressing PD-L1 and an engineered T cell receptor (TCR) activator are used as target cells. When these two cells are co-cultivated, TCR complexes on effector cells are activated by TCR activator on target cells, resulting in expression of the NFAT luciferase reporter. However, PD1 and PD-L1 (or PD-L2) ligation prevents TCR activation and suppresses the NFAT-responsive luciferase activity. This inhibition can be specifically reversed by anti-PD1 or anti-PD-L1 inhibitors. PD1/PD-L1 inhibitors block PD1:PD-L1 interaction and promote TCR activation, resulting in reactivation of the NFAT responsive luciferase reporter.
PD-1/NFAT—Reporter—Jurkat cell (Cat: 60535) and TCR activator/PD-L1—CHO cell (Cat: 60536) were purchased from BPS Bioscience. Anti-human PD-L1 antibody (Atezolizumab, Cat: A2004) was purchased from Selleck; luciferase reporter gene expression detection kit (ONE-Glo™ Luciferase Assay System, Cat: E6120) was purchased from Promega; multifunction plate reader (SpectraMax i3x) was purchased from Molecular Devices.
PD-1/NFAT—Reporter—Jurkat cells and TCR activator/PD-L1—CHO cells were cultured in recommended media respectively.
Harvest TCR activator/PD-L1-CHO cells from culture and seed cells at a density of 35,000 cells per well into 96-well microplate in 100 µl of growth medium. Incubate cells at 37° C. in a CO2 incubator overnight. Next day, discard the culture media, add diluted compound in assay medium for 30 min. Anti-PD-L1 antibody (Atezolizumab, final concentration 10 nM) and 0.1% DMSO were the positive and negative control, respectively. Harvest the PD-1/NFAT-reporter-Jurkat cells by centrifugation and add to the wells. After 6 hour incubation, perform luciferase assay using the ONE-Glo™ Luciferase Assay System, following the manufacturer's assay protocol.
Anti-PD-L1 antibody (Atezolizumnab, 10 nM) was used as positive control to calibrate the inhibition rate using the following equation: % inhibition=(Sample luminescence/Average vehicle group luminescence−1)/(Average PD-L1 group luminescence/Average vehicle group luminescence−1)×100%.

Row | EC50 [nM] | Compound
1 | 266 | N#Cc1cncc(COc2cc(OCc3cccc(-c4cccc5c4cnn5CCCN4CCC(O)CC4)c3Br)c(Cl)cc2CN[C@@H](CO)C(=O)O)c1 [Compound 6]
2 | 367 | N#Cc1cncc(COc2cc(OCc3cccc(-c4cccc5c4cnn5CCCCCN4CC[C@@H](O)C4)c3Br)c(Cl)cc2CN[C@@H](CO)C(=O)O)c1 [Compound 9]
3 | 643 | Cc1c(COc2cc(OCc3cncc(C#N)c3)c(CN[C@@H](CO)C(=O)O)cc2Cl)cccc1-c1cccc2c1cnn2CCCCN1CC[C@@H](O)C1 [Compound 27]
4 | 726 | N#Cc1cncc(COc2cc(OCc3cccc(-c4cccc5c4cnn5CCCCN4CC[C@@H](O)C4)c3[N+](=O)[O-])c(Cl)cc2CN[C@@H](CO)C(=O)O)c1 [Compound 28]
5 | > 1100 | N#Cc1cncc(COc2cc(OCc3cccc(-c4cccc5c4cnn5CCCCN4CC[C@@H](O)C4)c3N)c(Cl)cc2CN[C@@H](CO)C(=O)O)c1 [Compound 29]
6 | > 10000 | CN(C)c1c(COc2cc(OCc3cncc(C#N)c3)c(CN[C@@H](CO)C(=O)O)cc2Cl)cccc1-c1cccc2c1cnn2CCCCN1CC[C@@H](O)C1 [Compound 31]
7 | > 10000 | Cc1cncc(COc2cc(OCc3cccc(-c4cccc5c4cnn5CCCCN4CC[C@@H](O)C4)c3Br)c(Cl)cc2CN[C@@H](CO)C(=O)O)c1 [Compound 39]
8 | > 10000 | COc1cncc(COc2cc(OCc3cccc(-c4cccc5c4cnn5CCCCN4CC[C@@H](O)C4)c3Br)c(Cl)cc2CN[C@@H](CO)C(=O)O)c1 [Compound 40]
9 | 606 | O=C(O)[C@H](CO)NCc1cc(Cl)c(OCc2cccc(-c3cccc4c3cnn4CCCCN3CC[C@@H](O)C3)c2Br)cc1OCc1cncc(Cl)c1 [Compound 41]

Second part, the compound before the results:

Row | Compound | EC50 [nM]
10 | N#Cc1cc(COc2cc(OCc3cccc(-c4cccc5c4cnn5CCCN4CC[C@@H](O)C4)c3Br)c(Cl)cc2CN[C@@H](CO)C(=O)O)ccn1 [Compound 1] | 340
11 | N#Cc1cncc(COc2cc(OCc3cccc(-c4cccc5c4ccn5CCCN4CC[C@@H](O)C4)c3Br)c(Cl)cc2CN[C@@H](CO)C(=O)O)c1 [Compound 3] | 2380
12 | Cc1nn(CCCN2CC[C@@H](O)C2)c2cccc(-c3cccc(COc4cc(OCc5cncc(C#N)c5)c(CN[C@@H](CO)C(=O)O)cc4Cl)c3Br)c12 [Compound 4] | 5490
13 | CC(CO)(CO)NCc1cc(Cl)c(OCc2cccc(-c3cccc4c3cnn4CCCCN3CC[C@@H](O)C3)c2Br)cc1OCc1cncc(C#N)c1 [Compound 7] | 338
14 | CC(CO)(NCc1cc(Cl)c(OCc2cccc(-c3cccc4c3cnn4CCCN3CC[C@@H](O)C3)c2Br)cc1OCc1cncc(C#N)c1)C(=O)O (stereo partly shown) [Compound 10] | 412
15 | CC(CO)(NCc1cc(Cl)c(OCc2cccc(-c3cccc4c3cnn4CCCCN3CC[C@@H](O)C3)c2Br)cc1OCc1cncc(C#N)c1)C(=O)O (stereo partly shown) [Compound 12] | 289
16 | CC(CO)(CO)NCc1cc(Cl)c(OCc2cccc(-c3cccc4c3cnn4CCCN3CCC(O)CC3)c2Br)cc1OCc1cncc(C#N)c1 [Compound 13] | 242
17 | CC(CO)(CO)NCc1cc(Cl)c(OCc2cccc(-c3cccc4c3cnn4[C@H]3CC[C@H](N4CC[C@@H](O)C4)CC3)c2Br)cc1OCc1cncc(C#N)c1 [Compound 14] | 323
18 | CC(CO)(CO)NCc1cc(Cl)c(OCc2cccc(-c3cccc4c3cnn4CCCCN(CCO)CCO)c2Br)cc1OCc1cncc(C#N)c1 [Compound 15] | 3240
19 | CC(CO)(CO)NCc1cc(Cl)c(OCc2cccc(-c3cccc4c3cnn4CCCCNCCO)c2Br)cc1OCc1cncc(C#N)c1 [Compound 16] | 9360
20 | CC1(C)OCC(N2CCC(n3ncc4c(-c5cccc(COc6cc(OCc7cncc(C#N)c7)c(CN[C@@H](CO)C(=O)O)cc6Cl)c5Br)cccc43)CC2)CO1 [Compound 17] | 1760
21 | C[C@@](CO)(NCc1cc(Cl)c(OCc2cccc(-c3cccc4c3cnn4CCCN3CC[C@@H](O)C3)c2Br)cc1OCc1cncc(C#N)c1)C(=O)O [Compound 18] | 235
22 | N#Cc1cncc(COc2cc(OCc3cccc(-c4cccc5c4cnn5CC4CCC(N5CC[C@@H](O)C5)CC4)c3Br)c(Cl)cc2CN[C@@H](CO)C(=O)O)c1 (stereo partly shown) [Compound 19] | 764
23 | CC(CO)(CO)NCc1cc(Cl)c(OCc2cccc(-c3cncc4c3cnn4CCCCN3CC[C@@H](O)C3)c2Br)cc1OCc1cncc(C#N)c1 [Compound 21] | 3540
24 | N#Cc1cncc(COc2cc(OCc3cccc(-c4cccc5c4cnn5C4CCN(C(CO)CO)CC4)c3Br)c(Cl)cc2CN[C@@H](CO)C(=O)O)c1 [Compound 22] | 1130
25 | N#Cc1cncc(COc2cc(OCc3cccc(-c4cccc5c4cnn5CCCCN4CCC[C@H]4C(=O)O)c3Br)c(Cl)cc2CN[C@@H](CO)C(=O)O)c1 [Compound 23] | 608
26 | N#Cc1cncc(COc2cc(OCc3cccc(-c4cccc5c4cnn5CCCN4CC[C@@H](O)C4)c3C3CC3)c(Cl)cc2CN[C@@H](CO)C(=O)O)c1 [Compound 24] | > 10000
27 | Cc1c(COc2cc(OCc3cncc(C#N)c3)c(CNC(C)(CO)CO)cc2Cl)cccc1-c1cccc2c1cnn2CCCN1CC[C@@H](O)C1 [Compound 25] | 138
28 | Cc1c(COc2cc(OCc3cncc(C#N)c3)c(CN[C@@H](CO)C(=O)O)cc2Cl)cccc1-c1ccnc2c1cnn2CCCCN1CC[C@@H](O)C1 [Compound 26] | 1830
29 | N#CCOc1cc(OCc2cccc(-c3cccc4c3cnn4CCCCN3CC[C@@H](O)C3)c2Br)c(Cl)cc1CN[C@@H](CO)C(=O)O [Compound 34] | 5780
30 | N#CCCCOc1cc(OCc2cccc(-c3cccc4c3cnn4CCCCN3CC[C@@H](O)C3)c2Br)c(Cl)cc1CN[C@@H](CO)C(=O)O [Compound 35] | 1540
31 | N#CCCCCOc1cc(OCc2cccc(-c3cccc4c3cnn4CCCCN3CC[C@@H](O)C3)c2Br)c(Cl)cc1CN[C@@H](CO)C(=O)O [Compound 36] | 2340
32 | N#CCCCCCOc1cc(OCc2cccc(-c3cccc4c3cnn4CCCCN3CC[C@@H](O)C3)c2Br)c(Cl)cc1CN[C@@H](CO)C(=O)O [Compound 37] | 1920
33 | NC(=O)COc1cc(OCc2cccc(-c3cccc4c3cnn4CCCCN3CC[C@@H](O)C3)c2Br)c(Cl)cc1CN[C@@H](CO)C(=O)O [Compound 38] | 7640

Same assay, conditions: PD-1/NFAT-Reporter-Jurkat cells co-cultured with TCR activator/PD-L1-CHO cells; 6 hour incubation; luciferase; calibrated to Atezolizumab 10 nM; read-out: Absolute EC50

Row | EC50 [nM] | Compound
34 | 310 | N#Cc1cncc(COc2cc(OCc3cccc(-c4cccc5c4cnn5CCCN4CC[C@@H](O)C4)c3Br)c(Cl)cc2CN[C@@H](CO)C(=O)O)c1 [Compound 2]
35 | 241 | N#Cc1cncc(COc2cc(OCc3cccc(-c4cccc5c4cnn5CCCCN4CC[C@@H](O)C4)c3Br)c(Cl)cc2CN[C@@H](CO)C(=O)O)c1 [Compound 5]
36 | 1160 | N#Cc1cncc(COc2cc(OCc3cccc(-c4cccc5c4cnn5CCCCN4CC[C@@H](O)C4)c3Br)c(Cl)cc2CN[C@@H](CO)C(=O)O)c1 [Compound 8]
37 | 724 | N#Cc1cncc(COc2cc(OCc3cccc(-c4cccc5c4cnn5CCCN4CC[C@@H](O)C4)c3Br)c(Cl)cc2CN[C@@H](CO)C(=O)O)c1 [Compound 32]

More lines, now with the values behind:

Row | Compound | EC50 [nM]
38 | CC(CO)(CO)NCc1cc(Cl)c(OCc2cccc(-c3cccc4c3cnn4CCCN3CC[C@@H](O)C3)c2Br)cc1OCc1cncc(C#N)c1 [Compound 11] | 142
39 | N#Cc1cncc(COc2cc(OCc3cccc(-c4cccc5c4cnn5CC4CCC(N5CC[C@@H](O)C5)CC4)c3Br)c(Cl)cc2CN[C@@H](CO)C(=O)O)c1 (stereo partly shown) [Compound 20] | 876
40 | CC(CO)(CO)NCc1cc(Cl)c(OCc2cccc(-c3cccc4c3cnn4CCCN3CC[C@@H](O)C3)c2Br)cc1OCc1cncc(C#N)c1 [Compound 33] | > 370
